Measurements from patent US20170050966A1, “INHIBITING THE TRANSIENT RECEPTOR POTENTIAL A1 ION CHANNEL” (HYDRA BIOSCIENCES, INC., priority 2014, published 2017).
Each block holds one molecule with its values, some of them ahead of it.

What was measured:
[1] = molecular target: CYP2D6 (Homo sapiens, UniProt P10635); experiment: in vitro
[2] = molecular target: CYP2C9 (Homo sapiens, UniProt P11712); experiment: in vitro
[3] = molecular target: T1, CYP1A2 (Homo sapiens, UniProt P05177); experiment: CYP450 inhibition at 10 μM; type: biochemical; conditions: 1A2, substrate Phenacetin
T1 sequence (P05177 1-516): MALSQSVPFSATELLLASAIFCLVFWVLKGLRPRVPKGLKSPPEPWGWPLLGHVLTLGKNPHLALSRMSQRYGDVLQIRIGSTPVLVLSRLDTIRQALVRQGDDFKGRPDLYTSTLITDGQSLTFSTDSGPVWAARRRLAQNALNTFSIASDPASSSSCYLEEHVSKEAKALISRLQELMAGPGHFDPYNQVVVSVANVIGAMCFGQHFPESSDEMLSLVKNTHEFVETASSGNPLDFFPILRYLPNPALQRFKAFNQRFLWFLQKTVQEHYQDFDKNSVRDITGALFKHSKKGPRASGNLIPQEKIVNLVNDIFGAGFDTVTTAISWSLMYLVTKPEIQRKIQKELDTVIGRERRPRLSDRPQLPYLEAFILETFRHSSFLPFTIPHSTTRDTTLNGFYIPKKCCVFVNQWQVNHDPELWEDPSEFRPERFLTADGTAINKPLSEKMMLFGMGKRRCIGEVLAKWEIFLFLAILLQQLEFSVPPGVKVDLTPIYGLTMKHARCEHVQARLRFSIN

[4] = molecular target: CYP2C19 (Homo sapiens, UniProt P33261); experiment: in vitro; conditions: probe Mephenytoin
CYP2C19, sequence (P33261 whole entry): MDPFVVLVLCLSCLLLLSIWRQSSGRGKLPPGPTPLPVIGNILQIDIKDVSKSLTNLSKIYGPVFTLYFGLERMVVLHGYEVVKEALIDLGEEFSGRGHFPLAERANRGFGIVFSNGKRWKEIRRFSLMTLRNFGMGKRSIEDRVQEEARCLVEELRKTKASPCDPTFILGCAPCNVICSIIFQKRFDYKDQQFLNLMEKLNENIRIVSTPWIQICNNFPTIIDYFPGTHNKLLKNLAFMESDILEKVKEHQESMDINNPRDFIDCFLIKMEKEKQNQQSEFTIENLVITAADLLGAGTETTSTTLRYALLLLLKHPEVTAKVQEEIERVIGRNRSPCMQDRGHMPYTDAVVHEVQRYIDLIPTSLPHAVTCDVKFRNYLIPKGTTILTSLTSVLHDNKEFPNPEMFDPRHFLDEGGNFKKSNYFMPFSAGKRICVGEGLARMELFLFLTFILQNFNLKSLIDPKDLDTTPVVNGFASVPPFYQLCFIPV

CYP2D6, sequence (P10635 whole entry): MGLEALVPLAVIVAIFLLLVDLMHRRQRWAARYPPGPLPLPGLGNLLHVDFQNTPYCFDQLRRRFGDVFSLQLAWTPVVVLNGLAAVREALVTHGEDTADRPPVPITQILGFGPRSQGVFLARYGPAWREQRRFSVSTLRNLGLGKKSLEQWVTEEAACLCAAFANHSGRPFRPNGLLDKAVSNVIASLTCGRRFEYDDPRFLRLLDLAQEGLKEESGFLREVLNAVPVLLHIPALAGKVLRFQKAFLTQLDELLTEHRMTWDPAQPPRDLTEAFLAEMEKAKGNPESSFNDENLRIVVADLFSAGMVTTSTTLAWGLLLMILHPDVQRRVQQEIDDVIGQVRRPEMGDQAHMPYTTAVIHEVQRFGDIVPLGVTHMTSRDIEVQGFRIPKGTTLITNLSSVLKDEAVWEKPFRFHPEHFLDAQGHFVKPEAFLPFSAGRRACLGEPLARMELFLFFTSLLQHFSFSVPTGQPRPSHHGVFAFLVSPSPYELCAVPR
CYP2C9, sequence (P11712 whole entry): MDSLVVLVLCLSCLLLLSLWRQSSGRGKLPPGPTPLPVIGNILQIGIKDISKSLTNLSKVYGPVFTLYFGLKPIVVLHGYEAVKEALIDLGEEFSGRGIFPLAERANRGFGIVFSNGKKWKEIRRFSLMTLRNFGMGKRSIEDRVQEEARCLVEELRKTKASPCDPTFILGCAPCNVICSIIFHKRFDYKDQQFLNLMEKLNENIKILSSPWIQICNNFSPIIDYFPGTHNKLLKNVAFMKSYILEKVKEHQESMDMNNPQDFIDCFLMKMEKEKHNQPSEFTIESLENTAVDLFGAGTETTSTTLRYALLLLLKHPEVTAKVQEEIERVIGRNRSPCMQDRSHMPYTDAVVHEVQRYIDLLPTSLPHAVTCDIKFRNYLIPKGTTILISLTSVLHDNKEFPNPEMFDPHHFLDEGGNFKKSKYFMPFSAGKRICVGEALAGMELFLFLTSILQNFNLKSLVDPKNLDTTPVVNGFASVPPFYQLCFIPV

SMILES: C=C[C@H]1C[N@@]2CC[C@H]1C[C@@H]2[C@@H](O)c1ccnc2ccc(OC)cc12 [Quinidine, reference compound]
- inhibition at 1 μM [1]: 55.8%

SMILES: Nc1ccc(S(=O)(=O)Nc2ccnn2-c2ccccc2)cc1 [Sulfaphenazole, reference compound]
- inhibition at 10 µM [2]: 95.3%

SMILES: COCCCC/C(=N\OCCN)c1ccc(C(F)(F)F)cc1 [Fluvoxamine, reference compound]
- inhibition at 10 µM [3]: 96.6%

- inhibition at 10 µM [4]: 68.2%
SMILES: COc1ccc2[nH]c([S+]([O-])Cc3ncc(C)c(OC)c3C)nc2c1 (stereo not shown) [Omeprazole, reference compound]
